Laboratory results: PMC4777480, “Trichoderma harzianum Produces a New Thermally Stable Acid Phosphatase, with Potential for Biotechnological Application” (PLoS ONE, 2016)

T1: ACPase II (Trichoderma harzianum, UniProt A0A2T3ZY58)
T1 construct: gene M431DRAFT_96728
T1 sequence (A0A2T3ZY58 21-556): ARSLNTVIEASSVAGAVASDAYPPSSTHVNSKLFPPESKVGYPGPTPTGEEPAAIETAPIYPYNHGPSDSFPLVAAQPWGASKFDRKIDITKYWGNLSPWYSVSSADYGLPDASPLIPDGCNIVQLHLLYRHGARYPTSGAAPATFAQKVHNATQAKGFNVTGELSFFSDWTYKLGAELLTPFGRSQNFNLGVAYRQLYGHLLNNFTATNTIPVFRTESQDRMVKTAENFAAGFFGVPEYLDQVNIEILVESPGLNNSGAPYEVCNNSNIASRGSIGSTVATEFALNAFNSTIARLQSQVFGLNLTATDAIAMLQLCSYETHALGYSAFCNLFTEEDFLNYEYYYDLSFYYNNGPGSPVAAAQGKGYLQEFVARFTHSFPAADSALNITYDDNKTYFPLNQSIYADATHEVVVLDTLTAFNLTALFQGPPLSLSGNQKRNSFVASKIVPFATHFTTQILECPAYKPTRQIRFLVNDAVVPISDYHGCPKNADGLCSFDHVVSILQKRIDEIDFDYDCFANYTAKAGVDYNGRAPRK

B1: ACPase II (acid phosphatase II) from Trichoderma harzianum (enzyme)
chain: T1 sequence (A0A2T3ZY58 21-556)
modifications: glycoprotein, approximately 30% carbohydrate (N- and O-glycosylation)

Columns and labels:
ACPase II = biological target: T1, ACPase II; conditions: 5000 µM; 5 mM inorganic phosphate, 60°C; Table 3 gives residual activity instead
[1] = biological target: the molecule itself; assay: SEC + other: dynamic light scattering; data not shown; ACPase II in solution, eluted in the void volume; hydrodynamic radius 14.3 nm, mass 326 kDa; conditions of the light scattering not told

Row | Molecule | ACPase II (ACPase II) [%] | stoichiometry N [1]
1 | O=P(O)(O)O [sodium phosphate] | 65.0 ± 2.0 | –
2 | B1 | – | 4
